Experimental data published in patent US20210369664A1, “PROPHYLACTIC OR THERAPEUTIC AGENT FOR PULMONARY HYPERTENSION WHICH COMPRISES PPAR? AGONIST” (TOHOKU UNIVERSITY, priority 2016, published 2021).

Assays:
[1] = system: hypoxia-induced pulmonary hypertension mice; details: WY-14643 3 mg/kg/day by mixed feed
Method: Hypoxia-induced pulmonary hypertension mice serving as a model generally used in an animal experiment for pulmonary hypertension were administered a PPARα agonist (WY-14643, Sigma) at 3 mg/kg/day by mixed feed. Specifically, first, 8-week-old male wild-type mice (Balb/c mice, n=12 per group) were housed in a transparent acrylic box with an oxygen concentration controlled to 10% using a hypoxia generator (Teijin Limited, Japan) under a 12 h light and dark cycle. The mice were stimulated by hypoxia for 3 weeks, and a diet in this period was mixed with WY-14643 (the following solution was used as WY-14643: 1 mg of WY-14643 was dissolved in 0.1 ml of DMSO, and the solution of WY-14643 in DMSO was mixed with ultrapure water (mQ or ultrapure water) to prepare a 100 ml solution). The administration by mixed feed was performed at 3 mg/kg/day according to the previous report (Andrew D, et al. Hepatology. 2012; 56: 281-290). […] The following tests were also performed as controls: a test in which the mice were stimulated by hypoxia in the same manner as described above except that the mice were administered a 1:1,000 (V/V) mixed solution of DMSO and ultrapure water by mixed feed in place of WY-14643 as a diet; and a test in which the mice were administered the mixed solution of DMSO and ultrapure water by mixed feed in place of WY-14643 as a diet and were not stimulated by hypoxia.
(§1) After the hypoxic stimulation for 3 weeks, a 1.2-Fr catheter (SciSense Inc., Ontario, Canada) was inserted in the jugular vein of the mice under isoflurane anesthesia and advanced into the right ventricle to measure a right ventricular systolic pressure. In addition, after the measurement of the right ventricular systolic pressure, the heart and the lungs were dissected. For the heart, the right ventricle and the left ventricle were separated and their weight ratio was measured to assess right ventricular hypertrophy.
In addition, in tissue slides of the formalin-fixed lungs of each group, the number of pulmonary vessels including thrombi was counted for a field of about 100 mm^2, and the number of the pulmonary vessels including thrombi per 100 mm^2 was calculated. […] The resultant plasma sample was measured for its D-dimer concentration in plasma (unit: ng/ml) through the use of an ELISA kit (CEA506Mu manufactured by Life Science Inc.) according to the instruction of the kit. In addition, the plasma sample was measured for its thrombin-antithrombin complex (TAT) concentration in plasma (unit: pg/ml) through the use of an ELISA kit (SEA831Mu manufactured by Life Science Inc.) according to the instruction of the kit.
The dissected lungs were fixed with 10% formalin for 24 hours, and then 3 μm sections of the specimens were used to prepare slides. The slides were subjected to Elastica-Masson staining for staining elastic fiber in order to assess vessel wall thickening (remodeling). 60 to 80 distal pulmonary arteries having diameters of from 20 μm to 70 μm were observed per mouse, and their wall thickening was divided into 3 stages.

[2] = Average body weight of the administration groups in the hypoxia test; type: in vivo
Method: as §1, with “hypertrophy. The average body weights of the Control group (PPARα agonist: −, Hypoxia [3 wks]: −), the Vehicle group (PPARα agonist: −, Hypoxia [3 wks]: +), and the WY-14643 administration group (PPARα agonist: +, Hypoxia [3 wks]: +) before the test were 29.2±1.2 g, 28.9±1.0 g, and 29.6±1.4 g, respectively. In addition, the average body weights of the Control group, the Vehicle group, and the WY-14643 administration group after the test were 32.1±2.1 g, 23.5±1.8 g, and 25.7±2.0 g, respectively.” for “hypertrophy.”

SMILES	thrombus formation (number of pulmonary vessels including thrombi per 100 mm^2) ([1]; chronic hypoxic stimulation 3 weeks, lung tissue slides (FIG. 2))	pulmonary hypertension (overall result) ([1]; hypoxia 3 weeks)	remodeling of distal pulmonary vessels (Elastica-Masson staining) ([1]; hypoxia 3 weeks (FIG. 3))	right ventricular hypertrophy (right ventricle/(left ventricle plus septum) weight ratio) ([1]; hypoxia 3 weeks, Balb/c mice (FIG. 1))	D-dimer/TAT ratio (indicator of impaired fibrinolytic capacity) ([1]; hypoxia 3 weeks, plasma, ELISA (FIG. 2))	right ventricular systolic pressure ([1]; hypoxia (10% oxygen) 3 weeks, Balb/c mice, vs vehicle (FIG. 1))	average body weight after the test ([2]; WY-14643 administration group, 3 mg/kg/day, after 3 weeks hypoxia, Example 1)	average body weight after the test ([2]; fenofibrate administration group, 50 mg/kg/day, Example 3)
Cc1cccc(Nc2cc(Cl)nc(SCC(=O)O)n2)c1C [WY-14643, [[4-chloro-6-[(2,3-dimethylphenyl)amino]pyrimidin-2-yl]thio]acetic acid]	suppressed the increase in thrombus formation	ameliorated pulmonary hypertension	significant reduction	Significant reductions	its reduction was found	Significant reductions	25.7 ± 2.0 g	
CC(C)OC(=O)C(C)(C)Oc1ccc(C(=O)c2ccc(Cl)cc2)cc1 [fenofibrate, isopropyl 2-[4-(4-chlorobenzoyl)phenoxy]-2-methylpropionate]								334.30 ± 20.67 g
